Data taken from patent US8686150B2 (Sanofi, priority 2011, dated 2014).

Molecular target: T1, human full-length recombinant PKC βII (Homo sapiens, UniProt P05771)
T1 construct: Active human full-length recombinant PKC βII; purchased Invitrogen GmbH, Darmstadt, Germany
Assay: Determination of PKC βII inhibition (Caliper mobility-shift kinase assay, Fluorescein-RFARKGSLRQKNV peptide substrate)
Assay type: biochemical
Details: example compounds at a final concentration of 1.14 μM (±0.15 μM)
Outline: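 Compounds were tested at 1.14 μM final. Enzyme was activated by PS, DAG and CaCl2 in Hepes pH 7.4 with MgCl2, with substrate 3 μM and ATP 120 μM as pre-mix concentrations. After 60 min at 32 °C and an EDTA stop, Caliper separation gave fractional turnover, which was normalised to no-compound and no-enzyme controls.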

T1 sequence (P05771 1-673 isoform P05771-2): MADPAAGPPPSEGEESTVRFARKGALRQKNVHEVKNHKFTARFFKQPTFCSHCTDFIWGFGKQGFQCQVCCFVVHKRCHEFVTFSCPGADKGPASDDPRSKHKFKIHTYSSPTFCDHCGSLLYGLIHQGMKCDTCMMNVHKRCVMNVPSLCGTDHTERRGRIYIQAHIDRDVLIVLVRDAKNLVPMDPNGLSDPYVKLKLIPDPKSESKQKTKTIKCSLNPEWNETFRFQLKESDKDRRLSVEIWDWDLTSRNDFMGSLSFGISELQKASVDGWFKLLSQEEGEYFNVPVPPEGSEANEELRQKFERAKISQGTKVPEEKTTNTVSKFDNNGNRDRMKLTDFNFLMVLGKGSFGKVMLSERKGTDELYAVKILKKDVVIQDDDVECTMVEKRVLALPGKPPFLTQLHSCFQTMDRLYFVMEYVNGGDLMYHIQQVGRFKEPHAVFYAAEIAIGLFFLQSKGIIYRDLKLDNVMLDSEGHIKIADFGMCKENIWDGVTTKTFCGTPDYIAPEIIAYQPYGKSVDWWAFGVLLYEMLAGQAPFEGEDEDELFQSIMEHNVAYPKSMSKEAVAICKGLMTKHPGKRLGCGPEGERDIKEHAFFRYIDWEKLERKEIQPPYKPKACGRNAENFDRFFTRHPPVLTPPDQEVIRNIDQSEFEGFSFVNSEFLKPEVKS

Compound	inhibition at 1.14 µM [%]
Cc1n[nH]c2nc(-c3ccc(O)cc3)cc(C(=O)NCCN3CCCC3)c12 [Example 35, 6-(4-Hydroxy-phenyl)-3-methyl-1H-pyrazolo[3,4-b]pyridine-4-carboxylic acid (2-pyrrolidin-1-yl-ethyl)-amide]	52
Cc1n[nH]c2nc(-c3ccc(O)cc3)cc(C(=O)NCC(C)(C)N)c12 [Example 133, 6-(4-Hydroxy-phenyl)-3-methyl-1H-pyrazolo[3,4-b]pyridine-4-carboxylic acid (2-amino-2-methyl-propyl)-amide]	89
Cc1cc(O)ccc1-c1cc(C(=O)N2CCNCC2)c2c(C)n[nH]c2n1 [Example 13, [6-(4-Hydroxy-2-methyl-phenyl)-3-methyl-1H-pyrazolo[3,4-b]pyridin-4-yl]-piperazin-1-yl-methanone]	96
Cc1n[nH]c2nc(-c3ccc(O)c(F)c3)cc(C(=O)N3CCCC4(CCNC4)C3)c12 (stereo not shown) [Example 346, (2,7-Diaza-spiro[4.5]dec-7-yl)-[6-(3-fluoro-4-hydroxy-phenyl)-3-methyl-1H-pyrazolo[3,4-b]pyridin-4-yl]-methanone]	59
Cc1n[nH]c2nc(-c3ccc(O)cc3)cc(C(=O)N3CCC(N)CC3)c12 [Example 249, (4-Amino-piperidin-1-yl)-[6-(4-hydroxy-phenyl)-3-methyl-1H-pyrazolo[3,4-b]pyridin-4-yl]-methanone]	82
Cc1n[nH]c2nc(-c3ccc(O)cc3)cc(C(=O)N3CC4CCCN4CC3c3ccccc3)c12 (stereo not shown) [Example 282, [6-(4-Hydroxy-phenyl)-3-methyl-1H-pyrazolo[3,4-b]pyridin-4-yl]-(3-phenyl-hexahydro-pyrrolo[1,2-a]pyrazin-2-yl)-methanone]	73
Cc1n[nH]c2nc(-c3ccc(O)c(F)c3)cc(C(=O)NC3CC4(CC(N)C4)C3)c12 (stereo not shown) [Example 288, 6-(3-Fluoro-4-hydroxy-phenyl)-3-methyl-1H-pyrazolo[3,4-b]pyridine-4-carboxylic acid (6-amino-spiro[3.3]hept-2-yl)-amide]	59
CCC1(N)CCN(C(=O)c2cc(-c3ccc(O)cc3F)nc3[nH]nc(C)c23)CC1 [Example 416, (4-Amino-4-ethyl-piperidin-1-yl)-[6-(2-fluoro-4-hydroxy-phenyl)-3-methyl-1H-pyrazolo[3,4-b]pyridin-4-yl]-methanone]	84
Cc1n[nH]c2nc(-c3ccc(O)cc3)cc(C(=O)N(C)C3CCNCC3)c12 [Example 241, 6-(4-Hydroxy-phenyl)-3-methyl-1H-pyrazolo[3,4-b]pyridine-4-carboxylic acid methyl-piperidin-4-yl-amide]	88
Cc1n[nH]c2nc(-c3ccc(O)c(F)c3)cc(C(=O)NC3CCN(C4CCCCC4)CC3)c12 [Example 360, 6-(3-Fluoro-4-hydroxy-phenyl)-3-methyl-1H-pyrazolo[3,4-b]pyridine-4-carboxylic acid (1-cyclohexyl-piperidin-4-yl)-amide]	52
COc1cc(-c2cc(C(=O)N3CCNCC3)c3c(C)n[nH]c3n2)ccc1O [Example 10, [6-(4-Hydroxy-3-methoxy-phenyl)-3-methyl-1H-pyrazolo[3,4-b]pyridin-4-yl]-piperazin-1-yl-methanone]	29
CCc1n[nH]c2nc(-c3ccc(O)cc3)cc(C(=O)N[C@H]3CNC[C@@H]3OC)c12 [Example 161, 3-Ethyl-6-(4-hydroxy-phenyl)-1H-pyrazolo[3,4-b]pyridine-4-carboxylic acid ((3S,4S)-4-methoxy-pyrrolidin-3-yl)-amide]	77
CO[C@H]1CNC[C@@H]1NC(=O)c1cc(-c2ccc(O)cc2C)nc2[nH]nc(C)c12 [Example 143, 6-(4-Hydroxy-2-methyl-phenyl)-3-methyl-1H-pyrazolo[3,4-b]pyridine-4-carboxylic acid ((3S,4S)-4-methoxy-pyrrolidin-3-yl)-amide]	84
